Source: patent publication US20230167170A1, “COMPOSITIONS COMPRISING ANTI-VEGF AND NANOPARTICLES AND METHODS OF USING THE SAME FOR THE TREATMENT OF ABNORMAL OR EXCESSIVE ANGIOGENESIS” (Cellviva, LLC, priority 2020, published 2023)

Test system: pyogenic granuloma lesion
Test: Treatment of pyogenic granuloma after pterygiectomy and amniotic membrane graft with bevacizumab combination therapy (patient cases)
Type: in vivo, human
Protocol: A topical anesthetic (proparacaine 0.5% eye drops or Alcaine manufactured by Alcon Laboratories, Inc.) was applied to the eye following recent pterygiectomy and amniotic membrane graft surgery. The patients were examined to identify any abnormal grown on the eye. […] A syringe containing approximately 0.05 mL of bevacizumab ([…]) was injected into the eye and the plunger was drawn back to determine if blood was present in the syringe hub. […] Bevacizumab was then injected into the pyogenic granuloma lesion and/or in areas adjacent to the lesion where blood vessels were dilated and numerous. If bleeding occurred (e.g., in the form of subconjunctival or subcutaneous hematoma), tamponade with Q-tips was performed until bleeding stopped; then injection was resumed. The anti-inflammatory steroid drug and/or NSAID were administered either before or after the bevacizumab injection. The anti-inflammatory steroid drug and/or NSAID were administered by injection and/or via eye drops. If the anti-inflammatory steroid drug and/or NSAID was administered by injection, it was done following a similar process as described above for the bevacizumab injection. A syringe containing approximately 0.03 mL triamcinolone injection (40 mg/mL) was injected into the pyogenic granuloma lesion and the plunger was drawn back to determine if blood was present in the syringe hub. […] The anti-inflammatory steroid drug or NSAID was injected into the pyogenic granuloma lesion and/or in areas adjacent to the lesion where blood vessels were dilated and numerous. If bleeding occurred (e.g., in the form of subconjunctival or subcutaneous hematoma), tamponade with Q-tips was performed until bleeding stopped; then injection was resumed. If the anti-inflammatory steroid drug or NSAID was delivered by eyedrops, the steroid eye drops were given for approximately 6 weeks 1 to 4 times a day (every 6 hours) or once every hour (24 drops/day). NSAID eye drops were given 4 times a day every 6 hours for 3 to 6 months. Patients were followed up with to monitor for appearance of new pyogenic granuloma. The presence of new pyogenic granuloma was an indication for further treatment (e.g. with injection and/or eye drops). In some cases, during the first surgery to remove pterygium, the pterygium was only partially removed to prevent necrosis). Thus, in some patients, additional surgeries were subsequently performed to remove remaining sections of the pterygium, resulting in additional pyogenic granuloma. Two patients (Patients 1 and 2) underwent surgery to remove primary pterygium (pterygiectomy) from the cornea of one or both eyes followed by amniotic membrane graft surgery and were treated as described below.

[1] = Patient 2, left eye, 1-month follow-up visit, triamcinolone day 98, bevacizumab day 100

With bevacizumab the “resolution of pyogenic granuloma” value (Patient 1, right eye, 30 days after day 104, triamcinolone day 90, bevacizumab day 97) was “completely resolved”, the pyogenic granuloma size (Patient 1, right eye, day 104 after surgery, triamcinolone 0.03 mL (40 mg/mL) day 90, then bevacizumab 0.05 mL (1.25 mg/mL) day 97, both into the lesion) was “considerably smaller in circumference” and the “hyperemia of pyogenic granuloma” value (Patient 1, right eye, day 104 after surgery, triamcinolone day 90, bevacizumab day 97) was “no evidence of hyperemia”. For the same substance, the “pyogenic granuloma lesions, stated conclusion” value (Patient 1, combination therapy of bevacizumab and an anti-inflammatory steroid (injected)) was “inhibited”, the “recurrence of pyogenic granuloma” value [1] was “no evidence of recurrence” and the “resolution of pyogenic granuloma” value [1] was “completely resolved”. For the same substance, the pyogenic granuloma size (Patient 2, left eye, within two weeks of bevacizumab injection, triamcinolone 0.03 mL (40 mg/mL) day 98, bevacizumab 0.05 mL (1.25 mg/mL) day 100) was “significantly smaller”, the “erythema of pyogenic granuloma” value (Patient 2, left eye, within two weeks of bevacizumab injection, triamcinolone day 98, bevacizumab day 100) was “less erythematous” and the “pyogenic granuloma lesions, stated conclusion” value (Patient 2, combination therapy of bevacizumab and an anti-inflammatory steroid (injected or topical)) was “inhibited”. The “resolution of pyogenic granuloma” value (Patient 3, right eye, day 86, triamcinolone 0.03 mL (40 mg/mL) day 60, bevacizumab 0.05 mL (1.25 mg/mL) day 68, FIG. 4) was “completely resolved”, the “pyogenic granuloma, stated conclusion” value (Patient 3, combination therapy of bevacizumab, an anti-inflammatory steroid (injected or topical) and a topical NSAID) was “eliminated” and the “combination therapy compared with bevacizumab alone” value (Patient 3, combination therapy of bevacizumab, anti-inflammatory steroid and topical NSAID) was “superior to treatment with bevacizumab alone”. For the same substance, the “pyogenic granuloma lesion after steroid and anti-VEGF injection” value (Patient's eye 18 days after injection of both Kenalog and bevacizumab, FIG. 4) was “significant reduction in the pyogenic granuloma lesion”.
